Source: PMC3805573, “Methylglyoxal Evokes Pain by Stimulating TRPA1” (PLoS ONE, 2013)

What was measured:
MDCK cells = assay: [Ca2+]i-measurements in MDCK cells; assay type: cell-based, Canine
Method: MDCK cells were grown in DMEM (Invitrogen) supplemented with 5% fetal bovine serum, 100 U/ml penicillin and 100 µg/ml streptomycin. […] The experiments were performed in a physiological saline solution containing (in mM) 140 NaCl, 5 KCl, 10 glucose, 10 HEPES, 2 CaCl2, and 1 MgCl2, buffered to pH 7.4 with NaOH. Compounds were applied to cells by local continuous microperfusion of solution through a fine tube placed in close proximity of the cells studied. […] Analyses of emission intensity ratios at 340 nm/380 nm excitation (R, in individual cells) were performed using the ImageMaster suite of software. […] Cells grown in 96 well black walled plates (Costar, Tewksbury, MA) were loaded with Fura 2-AM in the presence of 1 mM probenecid at 37°C for 1–1.5 hours and assays were carried out at 25°C. Basal emission ratios (340 nm/380 nm) were measured and changes in ratio determined at various times after compound addition.

[1] = system: human TRPA1 C621S, C641S or C665S; assay: [Ca2+]i-responses of human TRPA1 point mutants C621S, C641S, C665S; assay type: cell-based; settings: human TRPA1 single point mutants vs wildtype
Method: (§1) Untransfected CHO cells and CHO cells expressing mouse or human TRPA1 were grown in MEM Glutamax or AQ medium supplemented with penicillin (100 U/ml), streptomycin (100 µg/ml), and FCS (10%). Plasmids encoding mutated TRPA1 channels were kindly provided by Dr. Ardem Patapoutian. All media, serum and antibiotics were from Invitrogen (Paisley, UK) or Sigma (Poole, UK).
Cells were loaded with 2 µM Fura-2 AM (Molecular Probes, Paisley, UK) in the presence of 1 mM probenecid for ∼1 hr. The experiments were performed in a physiological saline solution containing (in mM) 140 NaCl, 5 KCl, 10 glucose, 10 HEPES, 2 CaCl2, and 1 MgCl2, buffered to pH 7.4 with NaOH. Compounds were applied to cells by local continuous microperfusion of solution through a fine tube placed in close proximity of the cells studied. Images of a group of cells were captured every 2 sec using 340 and 380 nm excitation wavelengths with emission measured at 520 nm with a microscope based imaging system (PTI, New Jersey). […]
Changes in intracellular calcium ([Ca^2+]i) in response to agonists were determined in TRPA1 expressing CHO cells and MDCK cells using a Flexstation 3 (Molecular Devices). […] Basal emission ratios (340 nm/380 nm) were measured and changes in ratio determined at various times after compound addition.

mTRPA1 K712Q = biological target: T1, mTRPA1 K712Q (Mus musculus, UniProt Q8BLA8, K712Q); assay: [Ca2+]i-responses of mTRPA1 K712Q in CHO cells; assay type: cell-based
T1 construct: expressed in transfected cells; host or cells: CHO cells
T1 sequence (Q8BLA8 whole entry K712Q): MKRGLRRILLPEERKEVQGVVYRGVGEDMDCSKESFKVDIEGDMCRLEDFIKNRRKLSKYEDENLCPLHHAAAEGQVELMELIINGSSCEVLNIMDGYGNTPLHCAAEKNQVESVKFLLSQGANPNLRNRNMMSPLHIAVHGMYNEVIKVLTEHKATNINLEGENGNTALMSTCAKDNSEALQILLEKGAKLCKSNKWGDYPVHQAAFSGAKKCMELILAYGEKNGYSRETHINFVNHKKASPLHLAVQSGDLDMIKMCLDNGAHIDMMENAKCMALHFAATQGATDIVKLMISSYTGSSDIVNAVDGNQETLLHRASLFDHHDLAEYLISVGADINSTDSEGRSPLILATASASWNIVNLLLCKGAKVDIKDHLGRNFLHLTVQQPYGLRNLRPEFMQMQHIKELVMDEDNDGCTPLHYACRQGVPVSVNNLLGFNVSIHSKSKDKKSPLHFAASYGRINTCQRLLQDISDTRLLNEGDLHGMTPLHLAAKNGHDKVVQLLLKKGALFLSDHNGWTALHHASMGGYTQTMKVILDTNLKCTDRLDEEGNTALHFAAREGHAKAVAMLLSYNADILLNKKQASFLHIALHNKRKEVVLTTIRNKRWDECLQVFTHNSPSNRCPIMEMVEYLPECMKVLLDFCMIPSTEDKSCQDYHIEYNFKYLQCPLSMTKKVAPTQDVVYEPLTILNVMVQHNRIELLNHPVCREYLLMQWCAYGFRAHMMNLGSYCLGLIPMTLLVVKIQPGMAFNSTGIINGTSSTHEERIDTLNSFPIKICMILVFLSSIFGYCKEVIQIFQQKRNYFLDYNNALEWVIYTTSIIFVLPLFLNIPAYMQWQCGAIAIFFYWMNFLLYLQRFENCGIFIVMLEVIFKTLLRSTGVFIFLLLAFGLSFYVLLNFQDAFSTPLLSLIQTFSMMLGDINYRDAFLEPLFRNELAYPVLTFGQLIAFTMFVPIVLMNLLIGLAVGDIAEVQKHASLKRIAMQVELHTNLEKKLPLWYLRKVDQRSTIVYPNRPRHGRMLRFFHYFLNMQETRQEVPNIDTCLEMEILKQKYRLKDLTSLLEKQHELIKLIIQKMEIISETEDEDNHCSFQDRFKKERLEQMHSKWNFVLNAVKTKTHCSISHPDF
Method: as §1
(§2) Cells were loaded with 2 µM Fura-2 AM (Molecular Probes, Paisley, UK) in the presence of 1 mM probenecid for ∼1 hr. The experiments were performed in a physiological saline solution containing (in mM) 140 NaCl, 5 KCl, 10 glucose, 10 HEPES, 2 CaCl2, and 1 MgCl2, buffered to pH 7.4 with NaOH. Compounds were applied to cells by local continuous microperfusion of solution through a fine tube placed in close proximity of the cells studied. Images of a group of cells were captured every 2 sec using 340 and 380 nm excitation wavelengths with emission measured at 520 nm with a microscope based imaging system (PTI, New Jersey). Analyses of emission intensity ratios at 340 nm/380 nm excitation (R, in individual cells) were performed using the ImageMaster suite of software.

TRPA1 = assay: Outward TRPA1 currents in absence of Ca2+, effect of DTT; assay type: cell-based; settings: +60 mV, Ca2+-free
Method: DRG neurons and TRPA1 CHO cells were studied under voltage-clamp conditions using an Axopatch 200B amplifier and pClamp 10.0 software (Molecular Devices, Sunnyvale, CA). Except where stated otherwise, whole cell recordings were performed at a holding potential of –60 mV using an extracellular solution with the composition described above for [Ca^2+]i measurements. Borosilicate glass pipettes (2–5 MΩ, 75–80% series resistance compensation) were filled with (in mM) 140 KCl, 1 CaCl2, 2 MgATP, 10 EGTA, and 10 HEPES buffered to pH 7.4 (KOH). Excised inside-out patches were recorded using a Ca^2+-free solution containing (in mM) 140 NaCl, 5 KCl, 1 MgCl2, 10 HEPES and 1 EGTA, pH 7.4 (NaOH) in the pipettes and perfused with 140 KCl, 2 MgATP, 1 EGTA, and 10 HEPES (pH 7.4). DRG neurons were studied using an intracellular solution containing (in mM) 140 CsCl, 1 CaCl2, 2 MgATP, 10 EGTA and 10 HEPES, pH 7.4 (CsOH). Drugs were applied by local microperfusion with a rapid solution changer (RSC-200, Biologic, Claix, France).
It is possible that MG stimulates TRPA1 through formation of reversible hemithioacetals with cysteine residues other than those examined here, [40]. To investigate this possibility we examined the effect of the reducing agent dithiothreitol (DTT, 2 mM) on outward TRPA1 currents recorded in the absence of Ca^2+ (5 mM BAPTA intracellularly, 1 mM EGTA extracellularly) to avoid Ca^2+-mediated inactivation or desensitization. We used DTT to determine whether disulfide bridge formation or reversible noncovalent interactions contribute to the agonist activity of MG. DTT is expected to rapidly reduce cystine bridges to free thiols, but also to form hemithioacetals with MG, thereby accelerating current decay. Covalent modification of arginine and lysine residues by MG and modification of cysteine residues by AITC are on the other hand resistant to DTT [31]. […] This is consistent with the expected oxidative formation of cystine bridges and their reduction by DTT [4]. The contrast between the stable currents produced by H2O2 and the spontaneously reversible currents evoked by MG highlights the reversible nature of the interaction between MG and TRPA1. […] We also observed that repeated applications of MG and H2O2 evoked reproducible current responses of similar amplitudes, whereas an application of AITC prevented subsequent channel activation by AITC challenges (Fig. 4C-E). We conclude that MG acts through a reversible interaction with TRPA1 and that H2O2 relies on DTT sensitive oxidative modification of TRPA1 protein for its activity. […] In contrast, the covalent modification produced by AITC appears irreversible and renders TRPA1 refractory to subsequent activation.

beta cells = assay: [Ca2+]i-responses in pancreatic beta cells; assay type: cell-based, mice; settings: AITC, cells from wildtype or Trpa1-/- mice (data not shown)
Method: Mouse islets of Langerhans were isolated from the exocrine pancreas by collagenase digestion (1 mg/ml, type XI, Sigma, Poole, UK). Islets were dissociated by 15 min incubation in trypsin (0.5%, Sigma, Poole, UK) followed by trituration through a flame polished glass Pasteur pipette and the islet cells were seeded on glass cover slips.
as §2

mice = assay: Acute GLO-1 inhibition, paw pressure and von Frey tests; assay type: in vivo; settings: 1 h after administration, 50 mg/kg i.p.
Method: (§3) Mechanical thresholds were measured using an Analgesymeter (Ugo-Basile, Milan). Mice were kept in their holding cages to acclimatize (10–15 min) to the experimental room. The experimenter then lightly restrained the mouse and applied an increasing pressure stimulus to the dorsal surface of the hind paw using a blunt conical probe. The nociceptive threshold was defined as the force in grams at which the mouse withdrew its paw. In order to avoid tissue injury a 150 g force cut-off value was used.
Tactile allodynia was assessed by measuring withdrawal thresholds to calibrated von Frey filaments (0.008–2 g). Animals were placed in a Perspex chamber with a metal grid floor giving access to the underside of their paws and allowed to acclimatize prior to the start of the experiment. […] Using a modified ‘up-down’ method the lowest force filament producing a positive response was recorded as the threshold.
(§4) Methylglyoxal (250 nmoles in 25 µl saline) was injected subcutaneously into the plantar surface of one of the hind paws using a 50 µl luer-syringe (Hamilton Co.) fitted with a 26-gauge x 3/8 inch intradermal needle. Immediately after injection, mice were placed inside a Perspex chamber and the duration of the pain-related behaviors (licking and biting or flinching and shaking of the injected paw) recorded using a digital stop-watch. […]

[2] = system: Trpa1+/+ and Trpa1-/- mice; assay: Two week GLO-1 inhibition, nociceptive responses to cold, heat and mechanical stimulation; assay type: in vivo
Method: Data shown are from male and female homozygote Trpa1^− ^/− and Trpa1 ^+/+. The Trpa1-null mice and wild-type littermates were bred from heterozygotic mice provided by Drs. Kelvin Kwan and David Corey (Harvard Medical School, Boston, MA).
as §3
Tactile allodynia was assessed by measuring withdrawal thresholds to calibrated von Frey filaments (0.008–2 g). Animals were placed in a Perspex chamber with a metal grid floor giving access to the underside of their paws and allowed to acclimatize prior to the start of the experiment. Von Frey filaments were applied perpendicular to the mid plantar surface of the hind paw with sufficient force to cause slight bending against the paw and held for a few seconds. This was repeated 5 times at intervals of 1–2 s. A positive response was noted if the paw was sharply withdrawn or there was flinching upon removal of the hair. […] Using a modified ‘up-down’ method the lowest force filament producing a positive response was recorded as the threshold.
Heat and cold sensitivities were assessed by measuring the time for paw withdrawal from a 50°C hotplate or 10°C coldplate (Ugo Basile, Milan) of lightly restrained mice.
as §4

[3] = system: Trpa1+/+ and Trpa1-/- mice; assay: Intraepidermal nerve fiber density in plantar skin (PGP9.5); assay type: in vivo; settings: 2 weeks treatment, 50 mg/kg every other day, either genotype
Method: Formalin fixed plantar skin was embedded in paraffin wax and cut in 8 µm sections and stained with rabbit polyclonal anti-PGP9.5 (1 in 5000, Ultraclone Ltd, UK) after citric acid heat induced epitope retrieval. Staining was visualized using anti-rabbit IgG labeled with Alexa-594. The number of PGP9.5 positive fibers crossing the basal membrane into the epidermis was determined in n = 6 mice for each group on a Zeiss Axioplan 2 microscope. The observer was blinded to the treatment.

[4] = system: Trpa1+/+ and Trpa1-/- mice; assay: Glucose tolerance test, blood glucose; assay type: in vivo
Method: The glucose tolerance test was performed in mice (not fasted) treated i.p. with 2 g/kg glucose or vehicle (0.2 ml, 0.9% saline). HC030031 (100 mg/kg) or vehicle (DMSO 10%, Tween 80 5%, 0.9% saline 85%) was administered i.p. 30 min before glucose or vehicle. Glucose concentrations were determined using a Contour blood glucose meter (Bayer Diabetes Care) in blood samples taken from the tail-tip.

C=CCN=C=S [AITC]
[Ca2+]i-influx response (MDCK cells; 100 µM): evoked [Ca^2+]i-influx responses | EC50 (MDCK cells; read-out: EC50, [Ca2+]i-responses): 9.1 ± 2 µM | effect of substitutions C621S, C641S, C665S on sensitivity to AITC [1]: very substantially reduced | amplitude of [Ca2+]i-responses in mTRPA1 K712Q compared to WT mTRPA1 (mTRPA1 K712Q; AITC 50 µM): significantly reduced | effect of DTT (2 mM) on agonist-evoked TRPA1 current (TRPA1; AITC 50 µM): resistant to treatment with DTT | outward TRPA1 current after removal of agonist (TRPA1; AITC 50 µM): declined with time after removal of AITC | [Ca2+]i-responses in beta cells (beta cells): failed to elicit [Ca^2+]i-responses

CC(=Cc1ccc(Cl)cc1)C(C)=NO [AP18, 4-(4-chlorophenyl)-3-methylbut-3-en-2-one oxime]
effect on concentration-response curves for AITC and MG (MDCK cells; AP18 10 µM): produced similar rightward shifts

NC(CCC(=O)NC(CSCc1ccc(Br)cc1)C(=O)NCC(=O)OC1CCCC1)C(=O)OC1CCCC1 (stereo not drawn) [GLO-1 inhibitor, Sr-p-Bromobenzylglutathione cyclopentyl diester]
sensitivity in the paw pressure test (mice): unaffected | sensitivity in the von Frey filaments test (mice): unaffected | sensitivity to all four test modalities ([2]; Trpa1+/+ mice, after day 4, 7 administrations over 2 weeks, 50 mg/kg i.p.): progressively increased | sensitivity to cold, heat, paw-pressure and von Frey stimulation ([2]; first 4 days of the study, 50 mg/kg i.p. every 2 days): no increased sensitivity in any of the tests | persistence of hypersensitivities ([2]; two weeks after cessation of drug administration): no sign of reversal | IENF density compared to vehicle treated mice [3]: failed to produce a significant reduction

CC(C)c1ccc(NC(=O)Cn2cnc3c2c(=O)n(C)c(=O)n3C)cc1 [HC030031]
blood glucose in mice not challenged with glucose ([4]; 100 mg/kg i.p.): increased the blood glucose | blood glucose following a glucose challenge ([4]; 100 mg/kg i.p. 30 min before glucose 2 g/kg i.p., both Trpa1+/+ and Trpa1-/- mice): dramatically enhanced the increase in blood glucose

O=C/C=C/c1ccccc1 [cinnamaldehyde]
[Ca2+]i-influx response (MDCK cells; 1 mM): evoked [Ca^2+]i-influx responses

OO [hydrogen peroxide]
[Ca2+]i-influx response (MDCK cells; 20 mM): evoked [Ca^2+]i-influx responses | effect of DTT (2 mM) on agonist-evoked TRPA1 current (TRPA1; H2O2 5 mM): rapidly reduced the current amplitude | outward TRPA1 current after removal of agonist (TRPA1; H2O2 5 mM): remained at a stable amplitude after removal of H2O2

CC1=C[C@H]2c3c(O)cc(C)cc3OC(C)(C)[C@@H]2CC1 [Δ^9-tetrahydrocannabiorcol]
amplitude of [Ca2+]i-responses in mTRPA1 K712Q compared to WT mTRPA1 (mTRPA1 K712Q; 20 µM (Fig. 4D)): significantly reduced
